These are literature values, as cited in publication PMC6311893, “Computational prediction of plasma protein binding of cyclic peptides from small molecule experimental data using sparse modeling techniques” (BMC Bioinformatics, 2018).

For the series, the system named is plasma protein. The following applies: cited from earlier work.
[1] abbreviates: fraction bound to plasma protein, small molecule dataset, sheet 1-SM, ref Ingle et al.
[2] abbreviates: fraction bound to plasma protein, small molecule dataset, sheet 1-SM, Set Dtr, ref Ingle et al.
Where [3] appears, read: fraction bound to plasma protein, small molecule dataset, sheet 1-SM (Set Dte = test, Dtr = training), ref Ingle et al.

Read-outs that look alike come from different tables or passages of the source.

Turning to `CC[C@@H](CO)NC(=O)[C@@H]1C=C2c3cccc4[nH]cc(c34)C[C@H]2N(C)C1` [methylergonovine], the “PPB (fb)” value (plasma) is recorded as 0.35.

For `Nc1nc(N)c2nc(-c3ccccc3)c(N)nc2n1` [Triamterene], the “PPB (fb)” value under setting [1] was 0.59.

With `CN(C)CCCC1(c2ccc(F)cc2)OCc2cc(C#N)ccc21` (stereo not shown) [Citalopram], under setting [2], the “PPB (fb)” value was 0.68.

For the compound `CNCCCC12CCC(c3ccccc31)c1ccccc12` [Maprotiline], the “PPB (fb)” value under setting [3] is 0.89.

As for `CC(Cc1ccccc1)NCCC(c1ccccc1)c1ccccc1` (stereo not shown) [prenylamine], the “PPB (fb)” value under setting [1] is 0.97.

Consider `CC(=O)NC(CS)C(=O)O` (stereo not shown) [n-acetylcysteine], for which the “PPB (fb)” value under setting [1] is given as 0.83.

Take `NCC[C@H](O)C(=O)N[C@@H]1C[C@H](N)[C@@H](O[C@H]2O[C@H](CN)[C@@H](O)[C@H](O)[C@H]2O)[C@H](O)[C@H]1O[C@H]1O[C@H](CO)[C@@H](O)[C@H](N)[C@H]1O` [Amikacin]: under setting [2], the “PPB (fb)” value is 0.09.

On to `CC(=O)Nc1c(I)c(NC(C)=O)c(I)c(C(=O)O)c1I` [Diatrizoic Acid (Amidotrizoate)], for which the “PPB (fb)” value under setting [3] is listed as 0.02.

For `OCc1cc(C(O)CNCCCCCCOCCCCc2ccccc2)ccc1O` (stereo not shown) [salmeterol], the “PPB (fb)” value under setting [1] was 0.96.

As to `Clc1ccc2nsnc2c1NC1=NCCN1` [Tizanidine], the “PPB (fb)” value under setting [1] is 0.3.

As to `CC(Oc1c(Cl)cccc1Cl)C(=O)NC1C(=O)N2C1SC(C)(C)C2C(=O)O` (stereo not shown) [penicillin57], under setting [1], the “PPB (fb)” value is listed as 0.96.

Consider `O=c1[nH]cc(F)c(=O)[nH]1` [Fluorouracil], for which, under setting [2], the “PPB (fb)” value is 0.23.

For the compound `CC(C)Cc1ccc(C(C)C(=O)NCCCN2CCCC2)cc1` (stereo not shown) [JMC_06], the “PPB (fb)” value under setting [1] is 0.85.

Regarding `NS(=O)(=O)c1cc2c(cc1C(F)(F)F)NC(Cc1ccccc1)NS2(=O)=O` (stereo not shown) [bendrofluazide], under setting [3], the “PPB (fb)” value is listed as 0.94.

As to `CNC(=O)c1c(I)c(NC(C)=O)c(I)c(C(=O)O)c1I` [Iothalamic acid (Iothalamate)], the “PPB (fb)” value under setting [3] is given as 0.02.

In the case of `CC(C)NC[C@H](O)COc1ccc(O)cc1` [prenalterol], the “PPB (fb)” value under setting [1] is 0.04.

Take `COc1cccc2c1C(=O)c1c(O)c3c(c(O)c1C2=O)C[C@@](O)(C(=O)CO)C[C@@H]3O[C@H]1C[C@H](N)[C@@H](O)[C@H](C)O1` [Epirubicin]: under setting [2], the “PPB (fb)” value was 0.75.

Regarding `CC(Oc1cccc2ccccc12)C(=O)NC1C(=O)N2C1SC(C)(C)C2C(=O)O` (stereo not shown) [penicillin70], under setting [1], the “PPB (fb)” value is 0.97.

As to `C1=Cc2cccc(OCC3CNCCO3)c2C1` (stereo not shown) [indeloxazine], the “PPB (fb)” value under setting [1] is 0.94.

For `COC(C(=O)NC1C(=O)N2C1SC(C)(C)C2C(=O)O)c1ccc(Cl)c(F)c1` (stereo not shown) [penicillin44], the “PPB (fb)” value under setting [1] is reported as 0.83.

Consider `C=CCNc1nc(NCC=C)nc(N2CCN(C(c3ccc(F)cc3)c3ccc(F)cc3)CC2)n1` [almitrine], for which the “PPB (fb)” value under setting [3] was 0.99.

Consider `CC(=O)C1(O)CCC2C3CCC4=CC(=O)CCC4(C)C3CCC21C` (stereo not shown) [17-hydroxyprogesterone], for which the “PPB (fb)” value (plasma) is listed as 0.85.

Consider `OCCN1CCN(CCCN2c3ccccc3Sc3ccc(Cl)cc32)CC1` [Perphenazine], for which, under setting [2], the “PPB (fb)” value is listed as 0.92.

For `CC(C)(C)c1ccc(C(O)CCCN2CCC(C(O)(c3ccccc3)c3ccccc3)CC2)cc1` (stereo not shown) [terfenadine], the “PPB (fb)” value under setting [1] is 0.84.

Turning to `COC1/C=C/OC2(C)Oc3c(C)c(O)c4c(O)c(c(/C=N/N5CCN(C6CCCC6)CC5)c(O)c4c3C2=O)NC(=O)/C(C)=C\C=C\C(C)C(O)C(C)C(O)C(C)C(O)C1C` (stereo not shown) [25-desacetylrifapentine], under setting [3], the “PPB (fb)” value is 0.98.

As for `CCc1ccc(CCOc2ccc(CC3SC(=O)NC3=O)cc2)nc1` (stereo not shown) [pioglitazone], the “PPB (fb)” value under setting [1] is 0.99.

Consider `COc1ccc(CC(C)NCC(O)c2ccc(O)c(NC=O)c2)cc1` (stereo not shown) [formoterol], for which the “PPB (fb)” value (plasma) is recorded as 0.62.

For `CCOc1cnc2ccccc2c1C(=O)NC1C(=O)N2C1SC(C)(C)C2C(=O)O` (stereo not shown) [penicillin78], the “PPB (fb)” value under setting [1] is listed as 0.7.
